Molecules are shown by their SMILES.

Data set [1] is described as follows: Solid stability test: storage stability (amount of analogous substance by HPLC, appearance). It counts as physicochemical. The procedure: For the solid stability of the crystal of the compound represented by Formula (I) obtained in Example 1 and the crystal of the compound represented by Formula (II) obtained in Example 16, the chemical stability under temperature, temperature and humidity conditions, and light irradiation was evaluated. The proportion (%) of the analogous substance produced by an HPLC method and the change in appearance were evaluated.
About 10 mg of the crystal was accurately weighed in a 2 mL glass container with a polyethylene stopper. After the glass container was closed, the glass container was stored at 40° C. or 60° C. for 2 weeks, 1 month, 2 months, 3 months, or 6 months. A sample stored at 40° C. is referred to as a 40° C. hermetically sealed product, and a sample stored at 60° C. is referred to as a 60° C. hermetically sealed product. In a state where the glass container was opened, the glass container was stored at a relative humidity of 75±5% at 40° C. or a relative humidity of 89±5% for 2 weeks, 1 month, 2 months, 3 months or 6 months, or in the presence of silica gel at 40° C. for 1 month, 2 months, 3 months or 6 months. A sample stored at 40° C. and a relative humidity of 75±5% or 89±5% is referred to as a 40° C. and 75% relative humidity (also referred to as 40±2° C./75±5% RH) or 40° C. and 89% relative humidity (also referred to as 40±2° C./89% RH) stored product, and a sample stored in the presence of silica gel at 40° C. is referred to as a 40° C. stored product. The −40° C. hermetically sealed product was used as a standard product.
The amount of the analogous substance was measured by an area percentage method by the HPLC method under the following conditions.
HPLC Conditions 1 were used for the crystal and amorphous substance of the compound represented by Formula (I) obtained in Example 1, and HPLC conditions 2 were used for the crystal of the compound represented by Formula (II) obtained in Example 16.
• Detector: ultraviolet absorptiometer (measurement wavelength: 260 nm) • Column: YMC-Triart C18 ExRS, S-1.9 μm, 3.0×100 mm • Column temperature: constant temperature at near 40° C. • Mobile phase A: 0.1% formic acid aqueous solution • Mobile phase B: acetonitrile • Flow rate: about 0.6 mL/min • Injection amount: 3 μL • Sample cooler temperature: about 6° C. • Feed of mobile phase: The mixing ratio of mobile phase A and mobile phase B was changed as shown in Table 18 to control concentration gradient.
Column: Cortecs (2.7 μm 3.0×100 mm)
Column temperature: 40° C.
UV detection wavelength: 254 nm

The nature of data set [2]: Moisture adsorption/desorption isotherm measurement (DVS). It counts as physicochemical. An excerpt: The moisture adsorption/desorption isotherm measurement is a measurement method for measuring the adsorption and desorption behavior of moisture by measuring a weight change in a solid as a measurement target under each relative humidity condition.
As a basic measurement method, based on the dry weight at 0% RH (relative humidity 0%), the relative humidity is increased every 5% or 10%, and after the weight is stabilized at each relative humidity, the amount of adsorbed water can be determined from the weight increase from the reference value. Similarly, the desorption amount of water can be measured by decreasing the relative humidity every 5% or 10% from 100% RH or 95% RH.
By plotting the value of the weight change at each relative humidity, an adsorption/desorption isotherm can be obtained.
Sorption and desorption of adhesion water and crystal water are affected by particle size, crystallinity, crystal habit, and the like, so that the measurement results may slightly change.
The crystals and amorphous substances obtained in each Example were weighed in an aluminum pan, and allowed to stand at 25° C. and a relative humidity of 0%. The measurement was started after the compound was sufficiently dried and the weight was stabilized, and the weight when the relative humidity changed from 0% to 95% by 5% was recorded. Next, the weight when the relative humidity changed from 95% to 0% by 5% was recorded.
Device: DVS Advantage manufactured by Surface Measurement Systems

Where [3] appears, read: 40° C. Relative humidity 75%, 2 months.
The mark [4] stands for this setting: 40° C. hermetically sealed, 1 month.
The mark [5] stands for this setting: 40° C. hermetically sealed, 2 months.
Where [6] appears, read: 40° C. hermetically sealed, 2 weeks.
Setting [7] is: 60° C. hermetically sealed, 1 month.
[8] abbreviates: 60° C. hermetically sealed, 2 weeks.
Where [9] appears, read: (Standard product) −40° C. hermetically sealed, 1 month.
Where [10] appears, read: (Standard product) −40° C. hermetically sealed, 2 months.

Take `CS(=O)(=O)CC(=O)Nc1c2c(nn1CCCOC(F)(F)F)CC1(CCOc3cc(OCC(F)(F)F)ccc31)NC2=O` (stereo not shown) [listing 1 of 2 here]: the “Amount (%) of total analogous substance” value came out at 0.68% in data set [1] (setting [3]); 0.65% in data set [1] (setting [4]); 0.66% in data set [1] (setting [5]); 0.64% in data set [1] (setting [6]); 0.85% in data set [1] (setting [7]); 0.76% in data set [1] (setting [8]). Also, the “Amount (%) of total analogous substance” value in data set [1] (setting [9]) is 0.61%; in data set [1] (setting [10]), 0.62%.

For `Cc1ccc(-n2nc3c(c2NC(=O)CS(C)(=O)=O)C(=O)NC2(CCOc4cc(F)cc(F)c42)C3)nc1` (stereo not shown) [listing 1 of 2 here], the “Moisture adsorption amount (%)” value is listed as 0.002% in data set [2] (relative humidity 0.0%); 0.676% in data set [2] (relative humidity 5.0%); 1.020% in data set [2] (relative humidity 10.0%); 1.312% in data set [2] (relative humidity 15.0%); 1.574% in data set [2] (relative humidity 20.0%); 1.807% in data set [2] (relative humidity 25.0%). Besides, the “Moisture adsorption amount (%)” value in data set [2] (relative humidity 30.0%) is recorded as 2.015%; in data set [2] (relative humidity 35.0%), 2.213%; in data set [2] (relative humidity 40.0%) it was 2.414%; in data set [2] (relative humidity 45.0%), 2.589%; in data set [2] (relative humidity 50.0%) it was 2.780%; in data set [2] (relative humidity 55.0%), 2.976%. In addition, the “Moisture adsorption amount (%)” value in data set [2] (relative humidity 60.0%) came out at 3.185%; in data set [2] (relative humidity 65.0%), 3.384%; in data set [2] (relative humidity 70.0%), 3.623%; in data set [2] (relative humidity 75.0%), 3.914%; in data set [2] (relative humidity 80.0%) it was 4.320%; in data set [2] (relative humidity 85.0%) it was 4.850%. Also, the “Moisture adsorption amount (%)” value in data set [2] (relative humidity 90.0%) was 5.604%; in data set [2] (relative humidity 95.0%), 6.974%. In addition, the “Moisture desorption amount (%)” value in data set [2] (relative humidity 0.0%) is on record as −0.433%; in data set [2] (relative humidity 5.0%), 0.606%; in data set [2] (relative humidity 10.0%) it was 1.196%; in data set [2] (relative humidity 15.0%), 1.674%; in data set [2] (relative humidity 20.0%) it was 2.131%; in data set [2] (relative humidity 25.0%) it was 2.495%. Moreover, the “Moisture desorption amount (%)” value in data set [2] (relative humidity 30.0%) came out at 2.831%; in data set [2] (relative humidity 35.0%) it was 3.157%; in data set [2] (relative humidity 40.0%) it was 3.423%; in data set [2] (relative humidity 45.0%), 3.699%; in data set [2] (relative humidity 50.0%) it was 3.913%; in data set [2] (relative humidity 55.0%), 4.135%. For the same molecule, the “Moisture desorption amount (%)” value in data set [2] (relative humidity 60.0%) was found to be 4.411%; in data set [2] (relative humidity 65.0%), 4.683%; in data set [2] (relative humidity 70.0%) it was 5.151%; in data set [2] (relative humidity 75.0%), 5.420%; in data set [2] (relative humidity 80.0%), 5.865%; in data set [2] (relative humidity 85.0%), 6.219%. The results for the “Moisture desorption amount (%)” value in data set [2] (relative humidity 90.0%) and in data set [2] (relative humidity 95.0%) were 6.599% and 6.974%, respectively.

As to `Cc1ccc(-n2nc3c(c2NC(=O)CS(C)(=O)=O)C(=O)NC2(CCOc4cc(F)cc(F)c42)C3)nc1` (stereo not shown) [listing 2 of 2 here], the “Amount (%) of total analogous substance” value turned out to be 0.27% in data set [1] (setting [3]); 0.22% in data set [1] (setting [4]); 0.23% in data set [1] (setting [5]); 0.22% in data set [1] (setting [6]); 0.24% in data set [1] (setting [7]); 0.23% in data set [1] (setting [8]). The “Amount (%) of total analogous substance” value in data set [1] (setting [9]) and in data set [1] (setting [10]) was 0.22% throughout.

`CS(=O)(=O)CC(=O)Nc1c2c(nn1CCCOC(F)(F)F)C[C@@]1(CCOc3cc(OCC(F)(F)F)ccc31)NC2=O` [amorphous substance of the compound represented by Formula (]: the “difference in water content between 0% RH and 95% RH” value in data set [2] (DVS, 25° C.) is reported as “about 2.6%”.

Turning to `CS(=O)(=O)CC(=O)Nc1c2c(nn1CCCOC(F)(F)F)CC1(CCOc3cc(OCC(F)(F)F)ccc31)NC2=O` (stereo not shown) [listing 2 of 2 here], the “Moisture adsorption amount (%)” value in data set [2] (relative humidity 0.0%) is listed as 0.001%; in data set [2] (relative humidity 5.0%) it was 0.242%; in data set [2] (relative humidity 10.0%) it was 0.353%; in data set [2] (relative humidity 15.0%), 0.457%; in data set [2] (relative humidity 20.0%), 0.556%; in data set [2] (relative humidity 25.0%) it was 0.651%. Also, the “Moisture adsorption amount (%)” value in data set [2] (relative humidity 30.0%) worked out at 0.741%; in data set [2] (relative humidity 35.0%) it was 0.831%; in data set [2] (relative humidity 40.0%), 0.922%; in data set [2] (relative humidity 45.0%), 1.003%; in data set [2] (relative humidity 50.0%) it was 1.096%; in data set [2] (relative humidity 55.0%), 1.186%. Moreover, the “Moisture adsorption amount (%)” value is 1.285% in data set [2] (relative humidity 60.0%); 1.382% in data set [2] (relative humidity 65.0%); 1.498% in data set [2] (relative humidity 70.0%); 1.612% in data set [2] (relative humidity 75.0%); 1.744% in data set [2] (relative humidity 80.0%); 1.915% in data set [2] (relative humidity 85.0%). The “Moisture adsorption amount (%)” value in data set [2] (relative humidity 90.0%) is reported as 2.168%; in data set [2] (relative humidity 95.0%), 2.597%. Moreover, the “Moisture desorption amount (%)” value in data set [2] (relative humidity 0.0%) was −0.004%; in data set [2] (relative humidity 5.0%), 0.453%; in data set [2] (relative humidity 10.0%), 0.715%; in data set [2] (relative humidity 15.0%), 0.916%; in data set [2] (relative humidity 20.0%) it was 1.067%; in data set [2] (relative humidity 25.0%) it was 1.194%. In addition, the “Moisture desorption amount (%)” value in data set [2] (relative humidity 30.0%) worked out at 1.311%; in data set [2] (relative humidity 35.0%) it was 1.412%; in data set [2] (relative humidity 40.0%) it was 1.510%; in data set [2] (relative humidity 45.0%), 1.601%; in data set [2] (relative humidity 50.0%), 1.688%; in data set [2] (relative humidity 55.0%), 1.776%. Moreover, the “Moisture desorption amount (%)” value in data set [2] (relative humidity 60.0%) came out at 1.870%; in data set [2] (relative humidity 65.0%), 1.964%; in data set [2] (relative humidity 70.0%), 2.062%; in data set [2] (relative humidity 75.0%) it was 2.166%; in data set [2] (relative humidity 80.0%) it was 2.278%; in data set [2] (relative humidity 85.0%), 2.398%. In addition, the “Moisture desorption amount (%)” value in data set [2] (relative humidity 90.0%) is listed as 2.522%; in data set [2] (relative humidity 95.0%), 2.597%.

For the origin of these results see patent US20260274857A1, “CRYSTAL OF DIHYDROPYRIDINONE DERIVATIVE OR SOLVATE THEREOF” (Shionogi & Co., Ltd., priority 2022, published 2026).
